# According to US5658897A, “Cyclopentane(ene) heptanoic or cyclopentane(ene) heptenoic acid, 2-hydrocarbyl phosphinyloxyalkyl or phosphonamidoalkyl as therapeutic agents” (Allergan, priority 1996, dated 1997):
# “Also recorded” adds a separate entry of the source. Like-named read-outs stand apart in the source and are kept apart here.
# Tests used:
# EP4 = EP4 (Oryctolagus cuniculus, UniProt Q28691); conditions: for IC25: read-out: IC25 EP4
# Method: (§1) Activity at different prostanoid receptors was measured in vitro in isolated smooth muscle preparations. FP-activity was measured as contraction of the isolated feline iris sphincter. EP4 -activity was measured as relaxation of smooth muscle of isolated rabbit jugular vein. TP-vasoconstrictor activity was measured as contraction of rings of the isolated rat thoracic aorta.
# DP/EP2 = DP/EP2 activity in isolated smooth muscle preparations; conditions: read-out: EC50 (nM) DP/EP2
# Method: as §1
# FP receptor = FP receptor (Felis catus, UniProt A0ABI7XJ69); assay: FP activity, contraction of the isolated feline iris sphincter; conditions: read-out: EC50 (nM) FP
# FP receptor, sequence (A0ABI7XJ69 1-366): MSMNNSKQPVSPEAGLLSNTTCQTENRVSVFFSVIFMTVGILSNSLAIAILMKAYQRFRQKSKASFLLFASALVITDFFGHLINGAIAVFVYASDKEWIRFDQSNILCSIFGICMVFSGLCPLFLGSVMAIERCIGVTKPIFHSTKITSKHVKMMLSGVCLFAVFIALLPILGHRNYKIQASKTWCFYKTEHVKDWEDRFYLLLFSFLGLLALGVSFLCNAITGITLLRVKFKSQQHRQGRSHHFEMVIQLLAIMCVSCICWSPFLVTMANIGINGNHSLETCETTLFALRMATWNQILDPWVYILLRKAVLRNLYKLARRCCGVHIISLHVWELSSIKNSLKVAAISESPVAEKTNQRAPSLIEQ
# Method: as §1
# EP3 = EP3 activity in isolated smooth muscle preparations; conditions: read-out: EC50 (nM) EP3
# Method: as §1
# [1] = cited from earlier work; for ocular hypotensive activity: in vivo
# [2] = test system: intraocular pressure in the dog; assay: Dog intraocular pressure by applanation pneumatonometry; format: in vivo; conditions: 0.1%, 25 μl to ocular surface
# Method: The effects of certain of the compounds of the working examples on intraocular pressure are also measured. The compounds of Examples 3 and 7 are prepared at 0.1% w/v concentration in a vehicle comprising 0.1% polysorbate 80 and 10 mM tris (hydroxy methyl) aminomethane hydrochloride (TRIS) base. Dogs are treated by administering 25 μl to the ocular surface, while the contralateral eye receives vehicle as a control. Intraocular pressure is measured by applanation pneumatonometry. Dog intraocular pressure is measured immediately before drug administration and at 2, 4, 6 and 24 hours thereafter. Each of the compounds tested lower intraocular pressure in the dog model.
# ocular surface = conditions: cited from earlier work
# TP = biological target: T1, TP (Rattus norvegicus, UniProt P34978)
# T1 sequence (P34978 1-341): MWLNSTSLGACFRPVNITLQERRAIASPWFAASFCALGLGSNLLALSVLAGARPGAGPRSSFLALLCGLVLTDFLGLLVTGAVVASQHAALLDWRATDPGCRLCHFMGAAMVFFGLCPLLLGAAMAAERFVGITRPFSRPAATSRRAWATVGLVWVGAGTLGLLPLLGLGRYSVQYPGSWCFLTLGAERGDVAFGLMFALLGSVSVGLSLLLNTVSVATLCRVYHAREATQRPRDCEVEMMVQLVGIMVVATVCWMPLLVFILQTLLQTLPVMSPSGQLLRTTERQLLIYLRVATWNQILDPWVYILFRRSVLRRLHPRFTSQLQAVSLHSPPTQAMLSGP
# Method: as §1
# EP1 = EP1 activity in isolated smooth muscle preparations; conditions: read-out: EC50 (nM) EP1
# Method: Activity at different prostanoid receptors was measured in vitro in isolated smooth muscle preparations.
# EP4, sequence (Q28691 whole entry): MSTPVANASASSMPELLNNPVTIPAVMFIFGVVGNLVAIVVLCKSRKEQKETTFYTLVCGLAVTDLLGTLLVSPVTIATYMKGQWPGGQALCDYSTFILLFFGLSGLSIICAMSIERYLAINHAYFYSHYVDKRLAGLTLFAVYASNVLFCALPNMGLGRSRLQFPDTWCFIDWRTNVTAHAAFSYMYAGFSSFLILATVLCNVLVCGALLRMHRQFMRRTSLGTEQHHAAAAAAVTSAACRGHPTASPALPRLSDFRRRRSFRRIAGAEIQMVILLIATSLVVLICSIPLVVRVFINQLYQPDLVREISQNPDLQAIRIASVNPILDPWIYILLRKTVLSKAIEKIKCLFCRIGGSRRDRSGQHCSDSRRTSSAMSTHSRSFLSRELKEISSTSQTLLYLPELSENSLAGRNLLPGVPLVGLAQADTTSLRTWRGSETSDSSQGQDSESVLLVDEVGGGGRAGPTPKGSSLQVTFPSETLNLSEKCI
smiles,measurement,setting,value
COC(=O)CCC/C=C\C[C@@H]1[C@@H](COP(=O)(O)CCc2ccccc2)[C@H](O)C[C@@H]1O,FP/EP4 Ratio,EP4,> 27
same,IC25,EP4,0.365 µM
same,EC50,DP/EP2,> 10000 nM
same,EC50,FP receptor,> 10000 nM
same,EC50,EP3,> 10000 nM
O=C(O)CCC/C=C\C[C@@H]1[C@@H](COP(=O)(O)CCc2ccccc2)[C@H](O)C[C@@H]1O,EC50,FP receptor,> 10000 nM
CCOP(=O)(CCc1ccccc1)OC[C@@H]1[C@@H](C/C=C\CCCC(=O)O)[C@@H](O)C[C@H]1O (some centres unmarked),FP/EP4 Ratio,EP4,> 0.15
same,IC25,EP4,66.3 µM
same,EC50,FP receptor,> 10000 nM
COP(=O)(CCc1ccccc1)NC[C@@H]1[C@@H](C/C=C\CCCC(=O)O)[C@@H](O)C[C@H]1O (some centres unmarked),FP/EP4 Ratio,EP4,2.8
same,IC25,EP4,0.767 µM
same,EC50,FP receptor,2140 nM
"CCCCC[C@@H](/C=C/[C@@H]1[C@@H](C/C=C\CCCC(=O)O)[C@@H](O)C[C@H]1OC(=O)C(C)(C)C)OC(=O)C(C)(C)C [11,15-dipivaloyl PGF2α]",ocular hypotensive activity,[1],known to have ocular hypotensive activity
"COP(=O)(CCc1ccccc1)OC[C@@H]1[C@@H](C/C=C\CCCC(=O)O)[C@@H](O)C[C@H]1O (stereo partly drawn) [Example 3, 7-[3α,5α-Dihydroxy-2-β-[[methoxy(2-phenylethyl)phosphinyl]oxymethyl]cyclopentyl]-5Z-heptenoic acid]",Decrease in IOP (mm Hg) at 2 HR,[2],-1.1 mm Hg
same,Decrease in IOP (mm Hg) at 4 HR,[2],-2.9 mm Hg
same,Decrease in IOP (mm Hg) at 6 HR,[2],-3.5 mm Hg
same,Decrease in IOP (mm Hg) at 24 HR,[2],0.4 mm Hg
COC(=O)CCC/C=C\C[C@@H]1[C@@H](CNP(=O)(CCc2ccccc2)OC)[C@H](O)C[C@@H]1O (some centres unmarked) [Example 7],Decrease in IOP (mm Hg) at 2 HR,[2],-3.3 mm Hg
same,Decrease in IOP (mm Hg) at 4 HR,[2],-4.1 mm Hg
same,Decrease in IOP (mm Hg) at 6 HR,[2],-5.1 mm Hg
same,Decrease in IOP (mm Hg) at 24 HR,[2],-3.5 mm Hg
CCCCC[C@H](O)/C=C/[C@H]1[C@H](O)CC(=O)[C@@H]1C/C=C\CCCC(=O)O [PGE2],ocular hypotensive activity,[1],possess ocular hypotensive activity; also recorded: highly effective ocular hypotensive agents
CCCCC[C@H](O)/C=C/[C@@H]1[C@@H](CCCCCCC(=O)O)[C@@H](O)C[C@H]1O [PGF1α],ocular hypotensive activity,[1],highly effective ocular hypotensive agents
CCCCC[C@H](O)/C=C/[C@@H]1[C@@H](C/C=C\CCCC(=O)O)[C@@H](O)C[C@H]1O [PGF2α],ocular surface side effects,ocular surface; in vivo,ocular surface (conjunctival) hyperemia and foreign-body sensation
COP(=O)(CCc1ccccc1)OC[C@@H]1[C@@H](C/C=C\CCCC(=O)O)[C@@H](O)C[C@H]1O (some centres unmarked) [drawing 10],EC50,TP,> 10 µM
same,EC50,EP1,10000 nM
same,EC50,DP/EP2,> 10000 nM
same,EC50,FP receptor,195 nM
same,EC50,EP3,575 nM
COC(=O)CCC/C=C\C[C@@H]1[C@@H](CNP(=O)(CCc2ccccc2)OC)[C@H](O)C[C@@H]1O (some centres unmarked) [drawing 14],EC50,TP,> 10 µM
same,EC50,FP receptor,252 nM
same,EC50,EP3,> 10000 nM
CCCCC[C@H](O)/C=C/[C@@H]1[C@@H](C/C=C\CCCC(=O)OC(C)C)[C@@H](O)C[C@H]1O [isopropyl ester of PGF2α],ocular surface side effects,"ocular surface; topical ocular use, humans",ocular surface (conjunctival) hyperemia and foreign-body sensation
same,hypotensive potency versus the parent compound PGF2α,[1]; attributed to more effective penetration through the cornea,significantly greater hypotensive potency than the parent compound
same,ocular hypotensive activity,[1],the most potent ocular hypotensive agent ever reported
